Structure (SMILES) | melting point [°C]
O=S(=O)(NCCCO)c1ccc(Nc2nccc(-c3ccc(C(F)(F)F)cc3)n2)cc1 [Exemplary Compound 68, N-(3-hydroxypropyl)-4-({4-[4-(trifluoromethyl)phenyl]pyrimidin-2-yl}amino)-benzenesulfonamide] | 204 to 205
O=S(=O)(c1ccc(Nc2nccc(-c3ccc(C(F)(F)F)cc3)n2)cc1)N1CCOCC1 [Exemplary Compound 39, N-[4-(Morpholin-4-ylsulfonyl)phenyl]-4-[4-(trifluoromethyl)phenyl]pyrimidin-2-amine] | 240 to 241
